Data as given in PubChem BioAssay AID1259407 (Chemical Carcinogenesis Research Information System (CCRIS), 2018).
Calls of active or inactive are those of the source. The rule behind the calls is not given here.

System: CCRIS mutagenicity, Ames/micronucleus/aberration tests
Assay: CCRIS mutagenicity studies
[1] = Test System: AMES SALMONELLA TYPHIMURIUM, Strain/Indicator: TA98, Metabolic Activation: NONE, Method: PREINCUBATION
[2] = Test System: AMES SALMONELLA TYPHIMURIUM, Strain/Indicator: TA100, Metabolic Activation: NONE, Method: PREINCUBATION
[3] = Test System: AMES SALMONELLA TYPHIMURIUM, Strain/Indicator: TA98, Metabolic Activation: NONE, Method: STANDARD PLATE
[4] = Test System: AMES SALMONELLA TYPHIMURIUM, Strain/Indicator: TA100, Metabolic Activation: NONE, Method: STANDARD PLATE

CC(=O)Nc1ccc(Oc2ccc(N(O)C=O)cc2)cc1
mutagenic call (Test System: AMES SALMONELLA TYPHIMURIUM, Strain/Indicator: TA98(1,8-DNP6), Metabolic Activation: NONE, Method: PREINCUBATION): active; positive | mutagenic call (Test System: AMES SALMONELLA TYPHIMURIUM, Strain/Indicator: TA98(1,8-DNP6), Metabolic Activation: RAT, LIVER, S-9, AROCLOR 1254, Method: PREINCUBATION): active; positive | mutagenic call (Test System: AMES SALMONELLA TYPHIMURIUM, Strain/Indicator: TA98(NR), Metabolic Activation: NONE, Method: PREINCUBATION): active; positive | mutagenic call (Test System: AMES SALMONELLA TYPHIMURIUM, Strain/Indicator: TA98(NR), Metabolic Activation: RAT, LIVER, S-9, AROCLOR 1254, Method: PREINCUBATION): active; positive | mutagenic call [1]: active; positive | mutagenic call (Test System: AMES SALMONELLA TYPHIMURIUM, Strain/Indicator: TA98, Metabolic Activation: RAT, LIVER, S-9, AROCLOR 1254, Method: PREINCUBATION): active; positive | mutagenic call (Test System: AMES SALMONELLA TYPHIMURIUM, Strain/Indicator: TA100(NR), Metabolic Activation: NONE, Method: PREINCUBATION): active; positive | mutagenic call (Test System: AMES SALMONELLA TYPHIMURIUM, Strain/Indicator: TA100(NR), Metabolic Activation: RAT, LIVER, S-9, AROCLOR 1254, Method: PREINCUBATION): active; positive | mutagenic call [2]: active; positive | mutagenic call (Test System: AMES SALMONELLA TYPHIMURIUM, Strain/Indicator: TA100, Metabolic Activation: RAT, LIVER, S-9, AROCLOR 1254, Method: PREINCUBATION): active; positive

CNC(=O)/C=C(\C)OP(=O)(OC)OC
mutagenic call (End Point: In vitro chromosomal aberrations, Test System: Human lymphocytes, Metabolic Activation: None): active; positive (structural changes and ploidy) | mutagenic call (Test System: AMES SALMONELLA TYPHIMURIUM, Strain/Indicator: TA97A, Metabolic Activation: NONE, Method: STANDARD PLATE): inactive; negative | mutagenic call (Test System: AMES SALMONELLA TYPHIMURIUM, Strain/Indicator: TA97A, Metabolic Activation: PLANT, HOMOGENATE, S-14, Method: STANDARD PLATE): inactive; negative | mutagenic call (Test System: AMES SALMONELLA TYPHIMURIUM, Strain/Indicator: TA97A, Metabolic Activation: S-9, Method: STANDARD PLATE): inactive; negative | mutagenic call [3]: inactive; negative | mutagenic call (Test System: AMES SALMONELLA TYPHIMURIUM, Strain/Indicator: TA98, Metabolic Activation: PLANT, HOMOGENATE, S-14, Method: STANDARD PLATE): inactive; negative | mutagenic call (Test System: AMES SALMONELLA TYPHIMURIUM, Strain/Indicator: TA98, Metabolic Activation: S-9, Method: STANDARD PLATE): inactive; negative | mutagenic call [4]: inactive; negative | mutagenic call (Test System: AMES SALMONELLA TYPHIMURIUM, Strain/Indicator: TA100, Metabolic Activation: PLANT, HOMOGENATE, S-14, Method: STANDARD PLATE): inactive; negative | mutagenic call (Test System: AMES SALMONELLA TYPHIMURIUM, Strain/Indicator: TA100, Metabolic Activation: S-9, Method: STANDARD PLATE): inactive; negative | mutagenic call (Test System: AMES SALMONELLA TYPHIMURIUM, Strain/Indicator: TA1535, Metabolic Activation: PLANT, HOMOGENATE, S-14, Method: STANDARD PLATE): inactive; negative | mutagenic call (Test System: AMES SALMONELLA TYPHIMURIUM, Strain/Indicator: TA1535, Metabolic Activation: S-9, Method: STANDARD PLATE): inactive; negative | mutagenic call (Test System: UDS HUMAN FIBROBLASTS, Strain/Indicator: THY INCORP (NON-S-PHASE), Metabolic Activation: NONE, Method: LIQUID SCINTILLATION COUNTING): active; positive

O[C@H]1C=Cc2cccnc2[C@@H]1O
mutagenic call [4]: inactive; negative | mutagenic call (Test System: AMES SALMONELLA TYPHIMURIUM, Strain/Indicator: TA100, Metabolic Activation: RAT, LIVER, S-9, AROCLOR 1254 (10 OR 20%), Method: STANDARD PLATE): inactive; negative

Cc1cc(N)cc(C)c1N
mutagenic call [3]: inactive; negative | mutagenic call (Test System: AMES SALMONELLA TYPHIMURIUM, Strain/Indicator: TA98, Metabolic Activation: RAT, LIVER, S-9, AROCLOR 1254, Method: STANDARD PLATE): inactive; negative | mutagenic call [4]: inactive; negative | mutagenic call (Test System: AMES SALMONELLA TYPHIMURIUM, Strain/Indicator: TA100, Metabolic Activation: RAT, LIVER, S-9, AROCLOR 1254, Method: STANDARD PLATE): inactive; negative | mutagenic call (Test System: AMES SALMONELLA TYPHIMURIUM, Strain/Indicator: TA1535, Metabolic Activation: NONE, Method: STANDARD PLATE): inactive; negative | mutagenic call (Test System: AMES SALMONELLA TYPHIMURIUM, Strain/Indicator: TA1535, Metabolic Activation: RAT, LIVER, S-9, AROCLOR 1254, Method: STANDARD PLATE): inactive; negative | mutagenic call (Test System: AMES SALMONELLA TYPHIMURIUM, Strain/Indicator: TA1537, Metabolic Activation: NONE, Method: STANDARD PLATE): inactive; negative | mutagenic call (Test System: AMES SALMONELLA TYPHIMURIUM, Strain/Indicator: TA1537, Metabolic Activation: RAT, LIVER, S-9, AROCLOR 1254, Method: STANDARD PLATE): inactive; negative | mutagenic call (Test System: AMES SALMONELLA TYPHIMURIUM, Strain/Indicator: TA1538, Metabolic Activation: NONE, Method: STANDARD PLATE): inactive; negative | mutagenic call (Test System: AMES SALMONELLA TYPHIMURIUM, Strain/Indicator: TA1538, Metabolic Activation: RAT, LIVER, S-9, AROCLOR 1254, Method: STANDARD PLATE): inactive; negative

CCCCO
mutagenic call [3]: inactive; negative | mutagenic call (Test System: AMES SALMONELLA TYPHIMURIUM, Strain/Indicator: TA98, Metabolic Activation: RAT, LIVER, S-9, AROCLOR, Method: STANDARD PLATE): inactive; negative | mutagenic call [4]: inactive; negative | mutagenic call (Test System: AMES SALMONELLA TYPHIMURIUM, Strain/Indicator: TA100, Metabolic Activation: RAT, LIVER, S-9, AROCLOR, Method: STANDARD PLATE): inactive; negative | mutagenic call (Test System: AMES SALMONELLA TYPHIMURIUM, Strain/Indicator: UTH8413, Metabolic Activation: NONE, Method: STANDARD PLATE): inactive; negative | mutagenic call (Test System: AMES SALMONELLA TYPHIMURIUM, Strain/Indicator: UTH8413, Metabolic Activation: RAT, LIVER, S-9, AROCLOR, Method: STANDARD PLATE): inactive; negative | mutagenic call (Test System: AMES SALMONELLA TYPHIMURIUM, Strain/Indicator: UTH8414, Metabolic Activation: NONE, Method: STANDARD PLATE): inactive; negative | mutagenic call (Test System: AMES SALMONELLA TYPHIMURIUM, Strain/Indicator: UTH8414, Metabolic Activation: RAT, LIVER, S-9, AROCLOR, Method: STANDARD PLATE): inactive; negative

Cc1ccc2cc3c(ccc4ccccc43)c3c2c1CC3OS(=O)(=O)O (stereo not given)
mutagenic call [1]: active; positive | mutagenic call [2]: active; positive
